Assay [1] relates to K562 (human erythroblastic leukaemia). Put plainly: MTS cytotoxicity test, K562. It counts as cell-based. Particulars: read-out: EC50 (concentration where half of the cells died, MTS test). As to the method: (§1) In our experiment, HepG2 and Hep3B (human hepatocellular carcinoma), SUM149PT (human breast tumour), K562 (human erythroblastic leukaemia, U87 (human glioma), CCRF-CEM (human leukaemia) cell cultures were used; these were grown in the following medium: U87, CCRF-CEM; Dulbecco's Modified Eagle Medium (D-MEM) (high glucose) (Gibco BRL, Carlsbad, Calif., USA), penicillin (50 IU/ml-streptomycin ([…]), 10% foetal cattle serum.
(§2) The cells were placed into 96-well microtitration plates (10 000 cells/well), and after 24 hours the cells were incubated with the various substances. After incubation MTS test (3-(4,5-dimethylthiazol-2-yl)-5-(3-carboxymethoxyphenyl)-2-(4-sulphophenyl)-2H-tetrazolium) (Promega, Madison, Wis., USA) was conducted adding it in a final concentration of 0.5 mg/ml to the cells, which were then incubated at 37° C. for 1 hour. The cells were washed with PBS and the formazan dye was dissolved in isopropanol. The amount of the formazan dye transformed was measured by means of a Powerwave reader (Biotek, Winooski, Vt.) at 570 nm; background measurement 690 nm. The calibration curve was obtained in such a way that the capacity of the serial dilutions of the cells to transform MTS was measured and the viable cell count was calculated using Gen5 software.
(§3) In the table the EC50 values of each substance is presented (the concentration where half of the cells died based on the results of the MTS test).
(Tetrazolium dyes change colour on reduction, which living cells bring about.)

The test system of assay [2] is SUM149PT (human breast tumour). Put plainly: MTS cytotoxicity test, SUM149PT. Particulars: read-out: EC50 (concentration where half of the cells died, MTS test). It counts as cell-based. As to the method:
as §1
(§4) 1:1 mixture of HepG2, Hep3B, SUM149PT: Dulbecco's Modified Eagle Medium (D-MEM) (high glucose) (Gibco BRL, Carlsbad, Calif., USA) and Nutrient Mixture F-12 Ham (Sigma, St. Louis, Mo., USA), penicillin (50 IU/ml)-streptomycin ([…]), 10% foetal cattle serum.
as §2, §3

Assay [3] has as its system Wistar rats. Put plainly: Forced swimming test. It counts as in vivo, rat. Particulars: 30 mg/kg, previous experiments. As to the method: Wistar rats received from Charles River Laboratories (Budapest, Hungary) were used as test animals. App. 2 month rats were used (200-300 g body weight). The animals were conditioned for app. 1 week. The animals received standard laboratory food (Charles River Laboratories, Budapest, Hungary) and tap water ad libitum. The temperature and humidity were kept at 22±2° C. and 60±10%, respectively. The rats were kept in groups of 5 in 45×35×25 cm Makrolon cages. Day/night cycles of 12 hours were used; the light was switched off at 19:00. The experiments were conducted in the daylight period. The experiments were conducted in accordance with the European Communities Council Directive of 24 Nov. 1985 (86/609/EEC, according to the control and approval of the Animal Welfare Committee of the Institute of Experimental Medicine).
Rats were forced to swim twice as described in the following publication: Porsolt et al., 1978. On the first day every rat was placed in a 15 cm wide, 35 cm high glass cylinder filled with water to 30 cm. […] Behaviour of the animals was recorded by a video camera located 2 meters from the cylinders. The following behaviour factors were recorded: struggling (the animal tries to leave the cylinder by climbing on the walls); swimming (swimming round in the cylinder) and floating (the animal makes only the movements necessary to keep its head above the wafer). […]

The target of assay [4] is T1, Matrix metalloproteinase 2 (MMP-2, 72 kDa gelatinase) (Rattus norvegicus, UniProt P33436).
T1 construct: endogenous in cells; host or cells: H9c2 rat embryonic myocardial cells (culture supernatant)
T1 sequence (P33436 110-662): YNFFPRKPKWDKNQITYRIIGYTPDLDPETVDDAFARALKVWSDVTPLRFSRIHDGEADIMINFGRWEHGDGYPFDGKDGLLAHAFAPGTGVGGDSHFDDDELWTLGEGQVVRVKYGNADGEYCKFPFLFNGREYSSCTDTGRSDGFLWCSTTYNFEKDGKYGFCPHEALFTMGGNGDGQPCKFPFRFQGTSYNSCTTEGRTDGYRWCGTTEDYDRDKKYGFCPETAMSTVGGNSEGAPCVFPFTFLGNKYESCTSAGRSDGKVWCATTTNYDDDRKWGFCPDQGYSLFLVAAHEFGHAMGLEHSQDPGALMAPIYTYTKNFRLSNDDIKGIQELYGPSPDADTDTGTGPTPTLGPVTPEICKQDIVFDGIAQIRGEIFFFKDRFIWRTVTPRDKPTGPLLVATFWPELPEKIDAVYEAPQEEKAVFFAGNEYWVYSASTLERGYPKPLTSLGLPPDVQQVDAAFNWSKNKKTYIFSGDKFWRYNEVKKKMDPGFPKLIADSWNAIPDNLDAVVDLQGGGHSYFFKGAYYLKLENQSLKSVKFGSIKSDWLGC
Put plainly: Gelatinase activity in gel after electrophoresis of H9c2 supernatant (MMP-2). The assay is classed as biochemical. Particulars: 30 uM, substance present during incubation of the gel. As to the method:
(§5) H9c2 rat embryonic myocardial cells (from ATCC, Rockville, Md., USA) were grown in Dulbecco's modified eagle's medium containing 10% cattle serum, 4 mM L-glutamine (Sigma-Aldrich, Hungary), 100 IU/ml penicillin and 100 ug/ml streptomycin.

Assay [5] deals with T2, Matrix metalloproteinase 9 (MMP-9, 92 kDa gelatinase) (Rattus norvegicus, UniProt P50282).
T2 construct: endogenous in cells; host or cells: H9c2 rat embryonic myocardial cells (culture supernatant)
T2 sequence (P50282 108-708): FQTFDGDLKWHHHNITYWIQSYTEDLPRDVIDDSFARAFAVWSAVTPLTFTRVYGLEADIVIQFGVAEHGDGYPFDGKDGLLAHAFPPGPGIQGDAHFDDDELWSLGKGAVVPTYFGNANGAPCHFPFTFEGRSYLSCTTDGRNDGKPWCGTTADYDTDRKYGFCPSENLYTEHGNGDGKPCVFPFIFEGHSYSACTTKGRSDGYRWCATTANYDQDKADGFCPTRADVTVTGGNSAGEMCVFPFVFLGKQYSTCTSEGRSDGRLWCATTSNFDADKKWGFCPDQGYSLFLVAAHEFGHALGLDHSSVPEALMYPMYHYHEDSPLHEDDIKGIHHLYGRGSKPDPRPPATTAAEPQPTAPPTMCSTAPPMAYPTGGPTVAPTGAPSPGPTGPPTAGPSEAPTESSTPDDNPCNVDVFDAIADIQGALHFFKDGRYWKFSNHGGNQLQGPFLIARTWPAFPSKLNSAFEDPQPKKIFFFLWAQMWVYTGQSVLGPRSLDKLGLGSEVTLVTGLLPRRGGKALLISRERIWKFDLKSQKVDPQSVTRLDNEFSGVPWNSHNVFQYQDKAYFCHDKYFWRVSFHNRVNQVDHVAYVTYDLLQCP
The experiment in a line: Gelatinase activity in gel after electrophoresis of H9c2 supernatant (MMP-9). It counts as biochemical. The note with it: 30 uM, substance present during incubation of the gel. As to the method: as §5

The subject of assay [6] is Lewis rats. Put plainly: Heterotopic heart transplantation, reperfusion injury. The assay is classed as in vivo, rat. Particulars: 3 mg/kg. As to the method:
A heterotropic heart transplant experiment model was performed in a way described earlier (Poly(ADP-Ribose): inhibition of polymerase reduces the reperfusion injury occurring after heart transplantation (Szabó et al. 2002) , Briefly: the donor hearts were transplanted from Lewis rats. After ischemic protection performed at 4° C. for 1 hour, the hearts were implanted intraabdominally via anastomising the aorta and the pulmonary artery of the donor heart with the abdominal aorta or vena cava of the recipient rat. Care of all animals was performed by people in line with the requirements of “Principles of Laboratory Animal Care”; National Society of Medical Research, and the Guide for the Care and Use of Laboratory Animals prepared by the National Academy of Sciences; publisher: National Institutes of Health (NIH Publication No. 86-23, revised 1996).
The functional measurements of the transplant were carried out as follows: the left ventricular systolic pressure (LVSP), left ventricular end diastolic pressure (LVEDP), rate of the change of blood pressure (dP/dt) and relaxation time constant (TE) were measured by means of a Millar micromanometer (Millar Instruments, Inc.), with different LV, using an intraventricular ballon. The total coronary blood flow (CBF) was measured on the donor aorta with perivascular ultrasonic flow sample. After determination of the baseline, the endothelium-dependent vasodilator acetylcholine (ACH, 1 nmol/l, 0.2 ml) and bradykinin (BK 0.1 nmol/l, 0.2 ml), and the endothelium-independent vasodilator sodium nitroprussid (SNP, 10 nmol/l, 0.2 ml) were added directly into the coronary arteries of the transplant through the donor aorta. Between the infusions, CBP was allowed to return to the baseline level. The vasodilator response was expressed as the maximum percentage change of CBF from the baseline.
Two transplant groups were studied (n=6/in each group). Just before loosening the aorta clamp, slow injection of common salt solution (control group) or the compound according to Example 1 (3 mg/kg) was started and it was continued during the first 5 minutes of the reperfusion period.
Measurement of the systolic and diastolic function and CBF in group A (control) and group B (compound according to Example 1) was performed 1 hour after reperfusion.

The test system of assay [7] is CCRF-CEM (human leukaemia). Put plainly: MTS cytotoxicity test, CCRF-CEM. The assay is classed as cell-based. Particulars: read-out: EC50 (concentration where half of the cells died, MTS test). As to the method:
as §1
CCRF-CEM: RPMI Media 1640 (Gibco BRL, Carlsbad, Calif., USA), penicillin (50 IU/ml-streptomycin ([…]), 10% foetal cattle serum.
as §2, §3

In assay [8] the test system is HepG2 (human hepatocellular carcinoma). Put plainly: MTS cytotoxicity test, HepG2. It counts as cell-based. Particulars: HepG2 (liver), read-out: EC50 (concentration where half of the cells died, MTS test). As to the method: as §1, §4, §2, §3
The subject of assay [9] is U87 (human glioma). The experiment in a line: MTS cytotoxicity test, U87. It counts as cell-based. Particulars: U-87 MG, read-out: EC50 (concentration where half of the cells died, MTS test). As to the method:
as §1, §2, §3

Assay [10] has as its system Hep3B (human hepatocellular carcinoma). Put plainly: MTS cytotoxicity test, Hep3B. The note with it: Hep3B (liver), read-out: EC50 (concentration where half of the cells died, MTS test). The assay is classed as cell-based. As to the method:
as §1, §4, §2, §3

The mark [11] stands for this setting: after 60 minute reperfusion, vs control.

The source of these data is US8871937B2, “8-hydroxy-quinoline derivatives” (“AVIDIN” Kutato, Fejleszto es Kereskedelmi Korlatolt …, priority 2010, dated 2014).

Take `Cc1ccnc(NC(c2ccc(C(F)(F)F)cc2)c2ccc3cccnc3c2O)c1` (stereo not shown) [Example 8, 7-[(4-methyl-pyridin-2-ylamino)-(4-trifluoromethylphenyl)-methyl]-quinolin-8-ol]: the EC50 came out at 8000 nM in [1] and 10000 nM in assay [2].
`CN(C)CCCN1c2ccccc2CCc2ccccc21` [impipramine, imipramine]: the “floating in forced swimming test” value in assay [3] is recorded as “reliably reduced floating”.
Turning to `Cc1cccc(NC(c2ccc([N+](=O)[O-])cc2)c2ccc3cccnc3c2O)n1` (stereo not shown) [Example 1, 7-((6-methylpyridin-2-ylamino) (4-nitrophenyl)methyl)quinolin-8-ol], the “inhibition of 72 kDa gelatinase (MMP-2)” value in [4] is listed as “completely inhibited”. Besides, the “inhibition of 92 kDa gelatinase (MMP-9)” value in assay [5] is “inhibited the 92 kDa gelatinase (MMP-9) as well, hut to a less extent than the 72 kDa gelatinase”. Also, the “LVEDP (left ventricular end diastolic pressure)” value in assay [6] (setting [11]) is “did not show changing values between the groups”. In [6] (setting [11]), the “LVSP (left ventricular systolic pressure)” value is on record as “significantly (P=0.05) higher”. The “peak positive dP/dt” value in [6] (setting [11]) was “significantly (P=0.05) higher”. Further, the systolic functional recovery entry in [6] (setting [11]) was “significantly better”. Besides, the “reperfusion injury after heart transplantation” value in assay [6] (injection at start of reperfusion) is “Reduces Reperfusion Injury”. In addition, the “systolic heart function curves” value in assay [6] (vs group treated with the carrier (FIG. 1a, 1b)) was “significant drift to the left”. The EC50 in assay [7] was found to be 1000 nM; in [8] it was 500 nM; in [1], 1000 nM; in assay [2], 10000 nM; in assay [9], 2500 nM.
Regarding `Cc1ccnc(NC(c2ccccc2O)c2ccc3cccnc3c2O)n1` (stereo not shown) [Example 11, 7-[(2-hydroxyphenyl)-(4-methyl-pyrimidin-2-ylamino)-methyl]-quinolin-8-ol], the figures for the EC50 in assay [8] and in assay [1] were 1000 nM and 5000 nM, respectively.
In the case of `CCOC(=O)c1ccc(NC(c2ccc([N+](=O)[O-])cc2)c2ccc3cccnc3c2O)cc1` (stereo not shown) [Example 2, Ethyl 4-((8-hydroxyquinolin-7-yl) (4-nitrophenyl)methylamino)benzoate], the EC50 in [7] was determined as 1000 nM; in [10], 5000 nM; in assay [8] it was 2500 nM; in assay [9] it was 4000 nM.
Take `Cc1cccc(NC(c2ccc(C(F)(F)F)cc2)c2ccc3cccnc3c2O)n1` (stereo not shown) [Example 7, 7-[(6-methyl-pyridin-2-ylamino)-(4-trifluoromethyl-phenyl)-methyl]-quinolin-8-ol]: the EC50 came to 300 nM in assay [7], 5000 nM in assay [10], 500 nM in assay [8] and 15000 nM in [1].
Consider `Cc1ccnc(NC(c2ccc(C(F)(F)F)cc2)c2ccc3cccnc3c2O)n1` (stereo not shown) [Example 10, 7-((4-methylpyrimidin-2-ylamino) (4-(trifluoromethyl)phenyl)methyl)quinolin-8-ol], for which the EC50 in assay [8] stood at 1000 nM; in assay [1], 7000 nM; in assay [2], 5000 nM; in [9], 5000 nM.
As for `Cc1cccc(NC(c2ccc(F)c(F)c2)c2ccc3cccnc3c2O)n1` (stereo not shown) [Example 16, 7-((6-methylpyridin-2-ylamino) (3,4-difluorophenyl)methyl)quinolin-8-ol], the EC50 in assay [8] came to 5000 nM; in [1], 1500 nM; in [9], 2500 nM.
Taken in the same sequence, the figures for `Cc1cccc(NC(c2ccc(C(F)(F)F)cc2F)c2ccc3cccnc3c2O)n1` (stereo not shown) [7-((6-methylpyridin-2-ylamino)(2-fluoro-4-(trifluoromethyl)phenyl)methyl)quinolin-8-ol] were 1000 nM, 1500 nM and 2500 nM.
Consider `Oc1c(C(Nc2ccc(C(F)(F)F)cc2)c2ccccn2)ccc2cccnc12` (stereo not shown) [Example 5, 7-[pyridin-2-yl-(4-trifluoromethyl-phenylamino)-methyl]-quinolin-8-ol], for which the EC50 in [7] came to 100 nM; in [10] it was 2000 nM; in assay [8], 2000 nM; in assay [9], 3500 nM.
